Bridge positions count the residues as written; N and C are the ends. Ends that are not written are not given here. Peptide text beside a SMILES is read from it.
What was measured:
[1] = biological target: T1, PS:C4BP complex (Homo sapiens, UniProt P04003+P20851); assay: Peptide inhibition of binding of b-C4BP to PS-coated wells
T1 construct: Purified human C4BP was obtained from 5 liters (1) of human citrated plasma; from tissue; host or cells: human citrated plasma (C4BP); protein S per Schwarz et al
T1 sequence (P04003 49-597): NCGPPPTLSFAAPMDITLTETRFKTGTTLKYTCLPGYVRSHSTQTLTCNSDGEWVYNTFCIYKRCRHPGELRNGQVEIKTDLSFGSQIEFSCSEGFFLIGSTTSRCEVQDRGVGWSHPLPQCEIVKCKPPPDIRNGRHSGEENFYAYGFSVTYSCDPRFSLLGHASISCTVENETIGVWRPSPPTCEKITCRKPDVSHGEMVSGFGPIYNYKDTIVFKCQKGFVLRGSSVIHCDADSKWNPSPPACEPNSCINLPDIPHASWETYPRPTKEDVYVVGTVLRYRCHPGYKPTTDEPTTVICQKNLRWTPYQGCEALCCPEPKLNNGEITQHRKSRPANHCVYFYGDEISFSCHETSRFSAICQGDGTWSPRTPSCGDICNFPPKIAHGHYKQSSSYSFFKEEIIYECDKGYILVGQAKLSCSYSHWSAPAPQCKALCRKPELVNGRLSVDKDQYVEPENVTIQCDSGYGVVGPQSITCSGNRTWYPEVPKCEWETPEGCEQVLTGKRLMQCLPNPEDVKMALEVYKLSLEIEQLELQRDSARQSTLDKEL
T1 sequence (P20851 18-252): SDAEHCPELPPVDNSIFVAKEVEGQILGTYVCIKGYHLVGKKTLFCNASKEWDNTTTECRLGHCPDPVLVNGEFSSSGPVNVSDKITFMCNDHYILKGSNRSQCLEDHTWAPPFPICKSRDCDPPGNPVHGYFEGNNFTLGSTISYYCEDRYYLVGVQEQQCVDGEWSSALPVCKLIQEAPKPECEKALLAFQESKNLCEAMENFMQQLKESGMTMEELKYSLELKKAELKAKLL
Method: An alternative approach was used to test the ability of the peptides, PSP-loop and PSP-428K, in comparison with that seen with the PSP-12 peptide, in inhibiting the binding of C4BP to PS. For this assay, the microtiter wells were coated with purified PS diluted to a concentration of 10 µg/ml in carbonate-coating buffer as described above. The wells were maintained to allow the PS to bind to the well walls. After the maintenance period, the wells were blocked also as described above. The selected PSP peptides were separately admixed at various concentrations ranging from 0 - 500 µM with biotinylated-C4BP (b-C4BP) at a concentration of 1 µg/ml. The admixtures were maintained on a fluid phase plate for 2 hours at room temperature to form peptide-C4BP complexes.
Fifty µl of the complexed admixtures were separately admixed to the prepared C4BP-coated wells and maintained for 1 hour at room temperature. Thereafter, the plate was washed and processed for developing as described above.

[2] = biological target: T1, PS:C4BP complex; assay: Fluid-phase peptide inhibition of b-PS binding to C4BP, detected on anti-C4BP polyclonal antibody-coated plates
Method: (§1) An alternative approach was used to test the ability of the peptides, PSP-loop, PSP-424K and PSP-428K, in comparison with that seen with the PSP-12 peptide, in inhibiting the binding of PS to C4BP, the result of which was detected on polyclonal antibody-coated plates. For this assay, C4BP, biotinylated-PS (b-PS) and PSP peptides were admixed together at the respective concentrations of 3 µg/ml, 0.6 µg/ml and at a range of 0 - 500 µM (V:V:V). The admixtures were maintained for 2 hours at room temperature on a fluid phase plate to allow the binding and/or inhibition thereof of PS to C4BP by the PS-derived peptides. After the maintenance period, 50 µl of the admixture were separately admixed to wells previously coated with 10 µg/ml of anti-C4BP IgG polyclonal antibody. The admixtures were maintained for 1 hour at room temperature to allow for the binding of C4BP to C4BP-antibody-coated plates. The binding of biotinylated complexes to the antibody-coated plates was detected as described in Example 5Aii.

[3] = biological target: T1, PS:C4BP complex; assay: Fluid-phase peptide inhibition of PS binding to b-C4BP, detected on MAb S-7-coated plates
Method: as §1, with “monoclonal” for “polyclonal”, “biotinylated-C4BP (b-C4BP), PS” for “C4BP, biotinylated-PS (b-PS)”, “0.5” for “3”, “1.0” for “0.6”, “MAb S-7 (ATCC No. HB 80819).” for “anti-C4BP IgG polyclonal antibody.”, “MAb S-7-antibody-coated” for “C4BP-antibody-coated”

[4] = biological target: T1, PS:C4BP complex; assay: Peptide Inhibition Assay: binding of b-PS to C4BP in solid phase; details: subsequent experiments
Method: Each of the peptides produced as described in Example 1 and listed in Table 1 was analyzed for its ability to inhibit the binding of native protein S in liquid-phase to C4BP in solid-phase.
Microtiter wells of a 96 well plate were coated with 50 µl of 10 µg/ml purified C4BP in carbonate buffer (0.02 M Na2CO3, pH 9.0, 0.02% Na-Azide). After blocking with 10% BSA in TBS, 50 µl of different concentrations of peptides diluted in washing buffer (TBS, 0.2% BSA, 5mM CaCl, 0.02% Tween 20) were separately admixed to C4BP-coated wells. After 2 hours at room temperature, 50 µl of a solution of biotinylated protein S, were admixed to each well to form a second binding admixture having a final concentration of 2 µg/ml. The plate was agitated and the samples were incubated 1 hour at room temperature. The samples were discarded and the wells were washed 3 times with washing buffer. To each well, 50 µl of strepavidin-alkaline-phosphatase (1 µg/ml washing buffer) were admixed and allowed to incubate for 30 minutes at room temperature. The strepavidin-alkaline-phosphatase was then discarded and the wells were washed 6 times with washing buffer. The resulting optical densities of the reaction solutions were read as described before in Example 2C.
Results of the assay are reported as percent inhibition of C4BP binding. Percent of inhibition of C4BP binding is defined as: I = 100% - 100 x (deltaT /deltaC ) [formula] • where I is expressed as a percent; and • where 100% = delta/min of the amount of b-PS which specifically bound to C4BP-coated wells in the absence of any competing PS-peptide; and • where deltaT = the change in absorbance (405 nm) in the presence of competing PS-peptide; and • where deltaC = the change in absorbance (405 nm) in the absence of competing PS-peptide.

[5] = biological target: T2, C4BP (Homo sapiens, UniProt P04003+P20851); details: in vitro; cited from earlier work
T2 sequence (P04003 49-597): T1 sequence (P04003 49-597)
T2 sequence (P20851 18-252): T1 sequence (P20851 18-252)

[6] = biological target: T3, C4b binding protein (human, UniProt P04003 49-597; P20851 18-252); assay: Fluid-phase competition of C4BP, b-PS and peptide; capture on anti-C4BP polyclonal IgG
T3 construct: mature; The beta chain is added from general knowledge; Biotinylated (b-C4BP) in some assays; also called C4BP; purified human C4BP
T3 sequence (looked up) 1: T1 sequence (P04003 49-597)
T3 sequence (looked up) 2: T1 sequence (P20851 18-252)

[7] = biological target: T3, C4b binding protein; assay: Competition ELISA, peptide preincubated with b-C4BP, PS-coated wells
[8] = biological target: T3, C4b binding protein; assay: Fluid-phase competition of b-C4BP, PS and peptide; capture on MAb S-7

With `CC[C@H](C)[C@H](NC(=O)CNC(=O)[C@@H](N)CO)C(=O)N[C@@H](CCCCN)C(=O)N[C@@H](CCCCN)C(=O)N[C@H](C(=O)N[C@H](C(=O)N[C@@H](CCC(N)=O)C(=O)N[C@@H](CCC(=O)O)C(=O)N[C@@H](CCCCN)C(=O)N[C@@H](CCC(N)=O)C(=O)N[C@@H](CC(N)=O)C(=O)N[C@@H](CCCCN)C(=O)N[C@@H](CS)C(N)=O)[C@@H](C)CC)[C@@H](C)CC` [PSP-424K] (H-SGIKKIIQEKQNKC-NH2) the IC90 ([1]; b-C4BP 1 µg/ml, PS-coated wells, peptide 0 - 500 µM, read-out: IC90) was ~250 µM, the IC50 ([1]; b-C4BP 1 µg/ml, PS-coated wells, peptide 0 - 500 µM, read-out: half-maximal inhibitory concentration (IC50)) was ~50 µM and the “inhibition of the binding of b-PS to C4BP” value ([2]; compared with PSP-loop) was “also inhibitory but with lower effectiveness”. It also gave an IC50 ([3]; b-C4BP 0.5 µg/ml, PS 1.0 µg/ml, peptide 0 - 500 µM) of ~50 µM and an IC90 ([3]; b-C4BP 0.5 µg/ml, PS 1.0 µg/ml, peptide 0 - 500 µM, read-out: IC90) of ~250 µM.

Molecule `CC[C@H](C)[C@@H]1NC(=O)[C@H](CO)NC(=O)[C@H](C)NC(=O)CNC(=O)[C@H](CCC(N)=O)NC(=O)[C@H](CCCCN)NC(=O)[C@H](CCSC)NC(=O)[C@H](CC(C)C)NC(=O)[C@H](CC(N)=O)NC(=O)[C@H](Cc2c[nH]c3ccccc23)NC(=O)[C@H](CO)NC(=O)[C@H](CCCNC(=N)N)NC(=O)[C@H]([C@@H](C)CC)NC(=O)[C@@H](N)CSSC[C@@H](C(N)=O)NC(=O)[C@H](Cc2c[nH]cn2)NC(=O)[C@H](CCCCN)NC(=O)[C@H](CC(N)=O)NC(=O)[C@H](CCC(N)=O)NC(=O)[C@H](CCCCN)NC(=O)[C@H](CCC(=O)O)NC(=O)[C@H](CCC(N)=O)NC(=O)[C@H]([C@@H](C)CC)NC(=O)[C@H]([C@@H](C)CC)NC(=O)[C@H](CCC(=O)O)NC(=O)[C@H](CCCCN)NC1=O` [PSP-loop] (H-CIRSWNLMKQGASIKEIIQEKQNKHC-NH2; disulfide 1-26; N-terminus assumed) has an IC90 [1] of 50 µM, an IC90 [2] of ~400 µM and an IC90 [3] of ~100 µM. For the same molecule, the “peptide concentration that completely inhibits the binding of PS to C4BP” value [4] was “approximately 250 µM”.

For “GVQLDLDEAI [synthetic peptide derived from the carboxy terminal region of protein S (residues 605 to 614 of mature PS)]”, the “effect on the interaction of protein S with C4BP” value [5] is listed as “inhibits the interaction of protein S with C4BP in vitro”.

With CIRSWNLMKQGASIKEIIQEKQNKHC-NH2 (cysteine pairing not given here, also called loop peptide) [PSP-loop] the IC50 [6] was ~40 µM, the IC50 [7] was ~15 µM and the IC90 [7] was 50 µM. The IC50 [8] was ~35 µM.

— patent EP0592600B1, “PROTEINS S POLYPEPTIDES AND USES THEREOF” (THE SCRIPPS RESEARCH INSTITUTE, priority 1991, dated 1993)
